Test results as given in patent publication US9011863B2, “Combinations of kinase inhibitors for the treatment of cancer” (Exelixis, Inc., priority 2010, dated 2015).

Legend:
HER3 mRNA = assay: real-time qPCR of HER3 mRNA; assay type: cell-based, human; settings: BT474, SKBR3, MDA453 cells; 6 μM; time course up to 48 hours
Method: FIG. 12B depicts a bar chart of timed HER3 mRNA transcription in BT474 cells which were treated with 2 μM 5J8, 20 μM LY294002, and 50 nM rapamycin for 10 hours prior to RNA isolation and qPCR analysis with HER3-specific primers.

[1] = system: pAKT, pS6, HER3, pHER3, HER2 in human breast cancer cell lines; assay: immunoblotting of PI3K/AKT pathway markers; assay type: cell-based
Method: Immunoprecipitation, immunoblotting, and RTK assays were performed according to published methods. Primary antibodies included AKT, pAKT^S473, pAKT^T308, ERK, pERK^T202/Y204, pHER2^Y1248, pHER3^Y1197, pHER3^Y1222, pHER3^Y1289, S6, pS6^S240/244, p27, pRb^S780, FoxO1, FoxO3a, MEK1/2 (Cell Signaling Technology, Danvers, Mass., USA), p85, 4G10 pTyr (Millipore, Billerica, Mass., USA), HER3, CyclinD1, RhoA, HDAC3 (Santa Cruz Biotechnology, Santa Cruz, Calif., USA), PARP (BD Transduction Laboratories), β-actin (Sigma, St. Louis, Mo., USA), and HER2 (Neomarkers, division of Thermo Scientific, Freemenot, Calif., USA). Species-specific horseradish peroxidase-conjugated secondary antibodies were from Promega (Madison Wis., USA). Immunoreactive signals were detected by enhanced chemilluminsecence (Pierce, Rockford, Ill., USA). Phospho-RTK arrays were from R&D Systems (Minneapolis, Minn., USA) total cell lysates were used to hybridize with the arrays according to the manufacturer's instructions.
A panel of breast cancer cell lines with dysregulated PI3K activity was treated with increasing doses of compound A under two- and three-dimensional (2D and 3D) growth conditions. All experiments were conducted in 2.5% FBS-containing media, unless otherwise stated. […] This was further confirmed by immunoblot analysis of biomarkers of cell death and G1-S cell cycle transition in lysates from cells treated for 24 hours with compound A as shown in FIG. 10B.
Experiments were performed to examine the effect of compound A on a more comprehensive panel of molecules in the PI3K and TOR signaling pathways.
Although pHER3 is known to activate the extracellular signal regulated kinase (ERK/MAPK) via its interaction through the adaptor protein Shc, recovery of pERK upon feedback reactivation of HER3 was not detected consistently as shown in FIG. 13A.

[2] = system: subcutaneous A-549 human lung xenografts; assay: antitumor activity in A549 xenografts; assay type: in vivo, Swiss nude mice; settings: for activity rating: compound A at 30 mg/kg PO daily (text), 30 mg/kg
Source text: Control groups were left untreated.
Animal body weights included the tumor weights.

[3] = concentrations below 20 μM, 24 hours
[4] = Compound A PO 5 (160) mg/kg Q1Dx32
[5] = Compound A PO 100 (3200) mg/kg Q1Dx32

COc1ccc(Cl)c(Nc2nc3ccccc3nc2NS(=O)(=O)c2cccc(NC(=O)C(C)(C)N)c2)c1 [Compound A]
HER3 mRNA levels (HER3 mRNA): increase in HER3 mRNA that appeared maximal at 6 hours and was maintained up to 48 hours | cell lines with upregulation of total HER3 and/or pHER3^Y1289 levels ([1]; 24 hours): 6/7 | time to recovery of pAKT and pS6 levels ([1]; BT474, 6 μM): ≤ 6 hours | total HER3, pHER3, pAKT time course ([1]; BT474, 6 μM, 0-72 hours): time-dependent upregulation of total HER3, HER3 phosphorylated at Y1197 and Y1289 | HER3 RNA and protein time course ([1]; BT-474 cells, 6 uM, inhibitor added every 24 hours): time-dependent upregulation of HER3 RNA and protein, beginning at 6 hours and increasing through 72 hours | catalytic activity or autophosphorylation of HER2 ([1]; HER2-overexpressing cells): does not affect the catalytic activity or autophosphorylation of HER2 | P-Erk ([1]; SKBR-3 and MDA-453 cells, like in BT-474): P-Erk is upregulated | pAKT^S473/T308 and pS6^S240/244 ([1]; all cell lines, 0-20 μM): dose-dependent reduction in pAKT^S473/T308 and pS6^S240/244 | PI3K signaling as measured by pAKT^S473 ([1]; all cell lines, 24 hours, 0-20 μM): dose-dependent inhibition of PI3K signaling | cyclin D1, pRB, p27^KIP1 [1, 3]: reduction in cyclin D1 and pRB and an increase in levels of the CDK inhibitor p27^KIP1 | total or cleaved PARP [1, 3]: no change in levels of total or cleaved PARP | HER2-overexpressing cell lines with modest upregulation of total HER2 and/or pHER2^Y1248 ([1]; upon inhibition of PI3K): 5/6 | Biological response at day 68 [2, 4]: Very | Median ΔT/ΔC in % day 68 [2, 4]: 5% | Biological response at day 68 [2, 5]: highly active | Median % of regression on day 68 [2, 5]: 15% | Median ΔT/ΔC in % day 68 [2, 5]: −4% | Biological response at day 68 ([2]; Compound A PO 100 (3200) mg/kg Q1Dx32, listed as compound A): high activity | ΔT/ΔC (treated vs control tumor volume change) ([2]; compound A at 30 mg/kg PO daily): 5% | activity rating [2]: very active | activity rating ([2]; listed as compound A): high activity
